Experimental data reported in ChEMBL document CHEMBL1955722, “1,2,4-Oxadiazoles: a new class of anti-prostate cancer agents” (Bioorg Med Chem Lett, 2012).

Columns and labels:
DU-145 [1] = assay: Cytotoxicity against human androgen-independent DU145 cells by MTT assay; format: functional, cell-based
PC-3 [2] = assay: Cytotoxicity against human androgen-independent PC3 cells by MTT assay; format: functional, cell-based
LNCaP [3] = assay: Cytotoxicity against human androgen-dependent LNCAP cells by MTT assay; format: functional, cell-based
PC-3 [4] = assay: Cytotoxicity against human androgen-independent PC3 cells at 1 uM by MTT assay; format: functional
MCF-10A = assay: Cytotoxicity against human MCF10A cells at 1 uM by MTT assay; format: cell-based
DU-145 [5] = assay: Cytotoxicity against human androgen-independent DU145 cells at 1 uM by MTT assay; format: functional
LNCaP [6] = assay: Cytotoxicity against human androgen-dependent LNCAP cells at 1 uM by MTT assay; format: functional
DU-145 [7] = assay: Ratio of doxorubicin IC50 to compound IC50 for human androgen-independent DU145 cells

In the case of `CC(O)(CS(=O)(=O)c1ccccc1)c1nc(-c2ccc([N+](=O)[O-])c(C(F)(F)F)c2)no1` (centres undefined), the IC50 (DU-145 [1]) is reported as greater than 100 µM.
In the case of `CC(O)(CSc1ccc(Br)cc1)c1nc(-c2ccc(F)c(Cl)c2)no1` (centres undefined), the IC50 (DU-145 [1]) is reported as 8.8 µM.
`CC(O)(CS(=O)(=O)c1ccc(Cl)cc1)c1nc(-c2ccc([N+](=O)[O-])c(C(F)(F)F)c2)no1` (centres undefined) showed an IC50 (DU-145 [1]) of 91 µM.
With `CC(O)(CSc1ccc(Cl)cc1)c1nc(-c2ccc(Cl)cc2)no1` (centres undefined) the IC50 (DU-145 [1]) was 14.5 µM.
Work on `CC(O)(CSc1ccccc1)c1nc(-c2ccccc2)no1` (centres undefined) yielded an IC50 (DU-145 [1]) greater than 100 µM.
With `CC(O)(CS(=O)(=O)c1ccc(F)cc1)C(=O)Nc1ccc(C#N)c(C(F)(F)F)c1` (centres undefined) [BICALUTAMIDE] the IC50 (PC-3 [2]) was 77 µM, the IC50 (LNCaP [3]) was 1.71 µM and the IC50 (DU-145 [1]) was 64 µM.
For `COc1cccc2c1C(=O)c1c(O)c3c(c(O)c1C2=O)C[C@@](O)(C(=O)CO)C[C@@H]3O[C@H]1C[C@H](N)[C@H](O)[C@H](C)O1` [DOXORUBICIN], the IC50 (PC-3 [2]) was 1.05 µM and the IC50 (DU-145 [1]) was 5.8 µM.
For `CC(O)(CSc1ccc(F)cc1)c1nc(-c2ccc(F)c(Cl)c2)no1` (centres undefined), the IC50 (PC-3 [2]) was 11.5 µM, the Activity (PC-3 [4]) was 40.77% and the IC50 (LNCaP [3]) was greater than 100 µM. It also gave an Activity (MCF-10A) of 12.44%, an Activity (DU-145 [5]) of 47.84% and an Activity (LNCaP [6]) of 32.86%. The IC50 (DU-145 [1]) was 2.9 µM.
With `CC(O)(CSc1ccccc1)c1nc(-c2ccc(Cl)cc2)no1` (centres undefined) the IC50 (DU-145 [1]) was 4.5 µM.
Compound `CC(O)(CSc1ccc(F)cc1)c1nc(-c2ccc([N+](=O)[O-])c(C(F)(F)F)c2)no1` (centres undefined) has an IC50 (PC-3 [2]) of 5.5 µM, an Activity (PC-3 [4]) of 46.89% and an IC50 (LNCaP [3]) of 8.15 µM. The Activity (MCF-10A) was 11.35%, the Activity (DU-145 [5]) was 47.28% and the Activity (LNCaP [6]) was 26.88%. The IC50 (DU-145 [1]) was 5.1 µM.
Compound `CC(O)(CS(=O)(=O)c1ccc(F)cc1)c1nc(-c2ccc([N+](=O)[O-])c(C(F)(F)F)c2)no1` (centres undefined) has an IC50 (DU-145 [1]) greater than 100 µM.
In the case of `CC(O)(CS(=O)(=O)c1ccc(Br)cc1)c1nc(-c2ccc(Cl)cc2)no1` (centres undefined), the IC50 (DU-145 [1]) is reported as greater than 100 µM.
Work on `CC(O)(CS(=O)(=O)c1ccc(Br)cc1)c1nc(-c2ccccc2)no1` (centres undefined) yielded an IC50 (DU-145 [1]) greater than 100 µM.
For `CC(O)(CSc1ccc(Cl)cc1)c1nc(-c2ccc(F)c(Cl)c2)no1` (centres undefined), the IC50 (PC-3 [2]) was 10 µM, the “Ratio IC50” value (DU-145 [7]) was 11.6 and the Activity (PC-3 [4]) was 44.39%. The IC50 (LNCaP [3]) was 26.4 µM, the Activity (MCF-10A) was 10.62% and the Activity (DU-145 [5]) was 68.41%. It also gave an Activity (LNCaP [6]) of 33.85% and an IC50 (DU-145 [1]) of 0.5 µM.
Work on `CC(O)(CS(=O)(=O)c1ccccc1)c1nc(-c2ccccc2)no1` (centres undefined) yielded an IC50 (DU-145 [1]) greater than 100 µM.
`CC(O)(CSc1ccc(Cl)cc1)c1nc(-c2ccc([N+](=O)[O-])c(C(F)(F)F)c2)no1` (centres undefined) gave an IC50 (PC-3 [2]) of 3 µM, an Activity (PC-3 [4]) of 39.61% and an IC50 (LNCaP [3]) greater than 100 µM. It also gave an Activity (MCF-10A) of 10.35%, an Activity (DU-145 [5]) of 48.93% and an Activity (LNCaP [6]) of 28.93%. The IC50 (DU-145 [1]) was 1.3 µM.
For `CC(O)(CS(=O)(=O)c1ccc(Cl)cc1)c1nc(-c2ccc(Cl)cc2)no1` (centres undefined), the IC50 (DU-145 [1]) was greater than 100 µM.
Work on `CC(O)(CSc1ccccc1)c1nc(-c2ccc(F)c(Cl)c2)no1` (centres undefined) yielded an IC50 (DU-145 [1]) of 5.5 µM.
Work on `CC(O)(CSc1ccc(Br)cc1)c1nc(-c2ccccc2)no1` (centres undefined) yielded an IC50 (DU-145 [1]) greater than 100 µM.
For `CC(O)(CS(=O)(=O)c1ccc(F)cc1)c1nc(-c2ccc(F)c(Cl)c2)no1` (centres undefined), the IC50 (DU-145 [1]) was greater than 100 µM.
`CC(O)(CS(=O)(=O)c1ccc(F)cc1)c1nc(-c2ccc(Cl)cc2)no1` (centres undefined) gave an IC50 (DU-145 [1]) greater than 100 µM.
`CC(O)(CS(=O)(=O)c1ccc(Br)cc1)c1nc(-c2ccc([N+](=O)[O-])c(C(F)(F)F)c2)no1` (centres undefined) was tested, and the IC50 (DU-145 [1]) was greater than 100 µM.
Compound `CC(O)(CSc1ccc(F)cc1)c1nc(-c2ccc(Cl)cc2)no1` (centres undefined) has an IC50 (DU-145 [1]) of 36.2 µM.
`CC(O)(CS(=O)(=O)c1ccccc1)c1nc(-c2ccc(F)c(Cl)c2)no1` (centres undefined) showed an IC50 (DU-145 [1]) greater than 100 µM.
Work on `CC(O)(CSc1ccc(Br)cc1)c1nc(-c2ccc(Cl)cc2)no1` (centres undefined) yielded an IC50 (DU-145 [1]) of 6.5 µM.
`CC(O)(CS(=O)(=O)c1ccc(Br)cc1)c1nc(-c2ccc(F)c(Cl)c2)no1` (centres undefined) showed an IC50 (DU-145 [1]) of 75 µM.
`CC(O)(CS(=O)(=O)c1ccc(F)cc1)c1nc(-c2ccccc2)no1` (centres undefined) gave an IC50 (DU-145 [1]) greater than 100 µM.
Work on `CC(O)(CSc1ccc(Cl)cc1)c1nc(-c2ccccc2)no1` (centres undefined) yielded an IC50 (DU-145 [1]) of 70.7 µM.
`CC(O)(CS(=O)(=O)c1ccc(Cl)cc1)c1nc(-c2ccccc2)no1` (centres undefined) showed an IC50 (DU-145 [1]) greater than 100 µM.
`CC(O)(CS(=O)(=O)c1ccccc1)c1nc(-c2ccc(Cl)cc2)no1` (centres undefined) showed an IC50 (DU-145 [1]) greater than 100 µM.
With `CC(O)(CSc1ccc(Br)cc1)c1nc(-c2ccc([N+](=O)[O-])c(C(F)(F)F)c2)no1` (centres undefined) the IC50 (PC-3 [2]) was 51 µM, the Activity (PC-3 [4]) was 31.77% and the IC50 (LNCaP [3]) was 40 µM. It also gave an Activity (MCF-10A) of 10.55%, an Activity (DU-145 [5]) of 48.71% and an Activity (LNCaP [6]) of 27.45%. It also gave an IC50 (DU-145 [1]) of 1.6 µM.
For `CC(O)(CSc1ccccc1)c1nc(-c2ccc([N+](=O)[O-])c(C(F)(F)F)c2)no1` (centres undefined), the IC50 (PC-3 [2]) was 3.5 µM, the Activity (PC-3 [4]) was 49.02% and the IC50 (LNCaP [3]) was 9.67 µM. For the same compound, the Activity (MCF-10A) was 12.62%, the Activity (DU-145 [5]) was 49.62% and the Activity (LNCaP [6]) was 31.1%. It also gave an IC50 (DU-145 [1]) of 3 µM.
`CC(O)(CS(=O)(=O)c1ccc(Cl)cc1)c1nc(-c2ccc(F)c(Cl)c2)no1` (centres undefined) showed an IC50 (DU-145 [1]) of 35.5 µM.
In the case of `CC(O)(CSc1ccc(F)cc1)c1nc(-c2ccccc2)no1` (centres undefined), the IC50 (DU-145 [1]) is reported as greater than 100 µM.
